{
  "source": "ChEMBL document CHEMBL5375968",
  "about": "“Peptide TK-HR from the Skin of Chinese Folk Medicine Frog Hoplobatrachus Rugulosus Accelerates Wound Healing via the Activation of the Neurokinin-1 Receptor” (J Med Chem, 2023)",
  "key": {"[1]": {"assay": "Drug uptake in Aprepitant-treated HUVEC cells at 5 to 20 uM incubated for 30 mins by flow cytometry", "assay_type": "ADME, cell-based", "conditions": "human, 0.5 h, dose 5-20 µM"}, "[2]": {"assay": "Drug uptake in Aprepitant-treated BALB/c mouse neutrophils at 20 uM incubated for 30 mins by flow cytometry", "assay_type": "ADME, cell-based", "conditions": "neutrophil, 0.5 h"}, "[3]": {"assay": "Drug uptake in mouse RAW264.7 cells by flow cytometry", "assay_type": "ADME, cell-based", "conditions": "dose 2.5-40 µM"}, "[4]": {"assay": "Drug uptake in HUVEC cells incubated for 30 mins by flow cytometry", "assay_type": "ADME, cell-based", "conditions": "human, 0.5 h, dose 5-20 µM"}, "HaCaT [5]": {"test_system": "HaCaT", "assay": "Drug uptake in Aprepitant-treated human HaCaT cells 5 to 20 uM incubated for 30 mins by flow cytometry", "assay_type": "functional, cell-based", "conditions": "dose 5-20 µM"}, "HaCaT [6]": {"test_system": "HaCaT", "assay": "Drug uptake in human HaCaT cells incubated for 30 mins by flow cytometry", "assay_type": "functional, cell-based", "conditions": "dose 5-20 µM"}, "[7]": {"assay": "Drug uptake in BALB/c mouse neutrophils by flow cytometry", "assay_type": "ADME, cell-based", "conditions": "neutrophil, dose 2.5-40 µM"}, "[8]": {"assay": "Drug uptake in Aprepitant-treated mouse RAW264.7 cells at 20 uM incubated for 30 mins by flow cytometry", "assay_type": "ADME, cell-based", "conditions": "raw264.7, 0.5 h"}, "Neutrophil [9]": {"test_system": "Neutrophil", "assay": "Induction of ROS production in BALB/c mouse neutrophils at 100 nM incubated for 2 hrs by DCFH-DA staining based analysis", "assay_type": "functional, cell-based"}, "Neutrophil [10]": {"test_system": "Neutrophil", "assay": "Induction of chemotaxis in BALB/c mouse neutrophils assessed as increase in ratio of cell polarization at 100 nM measured for 15 mins by Zigmond-chamber based microscopy (reference value: 14.6 %)", "assay_type": "functional", "conditions": "0.25 h"}},
  "note": "Calls of active or inactive are those of the source. No cut-off for these calls is given here. Residues, ends and D or L forms follow the SMILES beside them.",
  "data": [
    {"smiles": "CSCC[C@H](NC(=O)[C@H](CC(C)C)NC(=O)CNC(=O)[C@H](Cc1ccc(O)cc1)NC(=O)[C@H](Cc1ccccc1)NC(=O)[C@H](CCCNC(=N)N)NC(=O)[C@H](CC(=O)O)NC(=O)[C@@H]1CCCN1C(=O)[C@H](CC(N)=O)NC(=O)[C@@H]1CCCN1C(=O)[C@H](CCCCN)NC(=S)Nc1ccc(-c2c3ccc(=O)cc-3oc3cc(O)ccc23)c(C(=O)O)c1)C(N)=O", "note": "(HELM PEPTIDE1{[O=C(O)c1cc(NC(=S)[*:2])ccc1-c1c2ccc(=O)cc-2oc2cc(O)ccc12].K.P.N.P.D.R.F.Y.G.L.M.[am]}$$$$V2.0)", "values": [
      {"measurement": "Drug uptake", "setting": "[1]", "value": "Not Active"},
      {"measurement": "Drug uptake", "setting": "[2]", "value": "Not Active"},
      {"measurement": "Drug uptake", "setting": "[3]", "value": "Dose-Dependent Effect"},
      {"measurement": "Drug uptake", "setting": "[4]", "value": "Dose-Dependent Effect"},
      {"measurement": "Drug uptake", "setting": "HaCaT [5]", "value": "inactive"},
      {"measurement": "Drug uptake", "setting": "HaCaT [6]", "value": "Dose-Dependent Effect"},
      {"measurement": "Drug uptake", "setting": "[7]", "value": "Dose-Dependent Effect"},
      {"measurement": "Drug uptake", "setting": "[8]", "value": "Not Active"}
    ]},
    {"smiles": "CCCCCCCCCCCCCC(=O)O[C@@H]1[C@@H](C)[C@]2(O)[C@@H](C=C(CO)C[C@]3(O)C(=O)C(C)=C[C@@H]23)[C@@H]2C(C)(C)[C@]12OC(C)=O", "values": [
      {"measurement": "Activity", "setting": "Neutrophil [9]", "value": "Active"}
    ]},
    {"smiles": "CSCC[C@H](NC=O)C(=O)N[C@@H](CC(C)C)C(=O)N[C@@H](Cc1ccccc1)C(=O)O", "values": [
      {"measurement": "Activity", "setting": "Neutrophil [10]", "value": 56.3, "unit": "%"}
    ]}
  ]
}
